Assay results: US20230089247A1, “NOVEL COMPOUNDS SUITABLE FOR THE TREATMENT OF DYSLIPIDEMIA” (ZYDUS LIFESCIENCES LIMITED, priority 2019, published 2023)

How the values were obtained:
PCSK9 = PCSK9 (Homo sapiens, UniProt Q8NBP7); experiment: BODIPY-LDL uptake assay in HepG2 cells; type: cell-based; details: 5 μg/ml PCSK9, BODIPY-LDL
Procedure, shortened: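 Compounds pre-incubated 60 min with 5 μg/ml PCSK9 (0.2% DMSO), then added to HepG2 cells for 16 h; 1 μg/ml BODIPY-LDL added in serum-free medium for 5 h. Fluorescence (Ex 485/Em 520 nm) normalized to protein; PCSK9-only wells = 0%, no-PCSK9 wells = 100% uptake, giving percent increase in LDL uptake.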

High Fat Diet C57 Mice = experiment: LDL-C lowering activity in high fat diet C57 mice; type: in vivo; details: Mus musculus, po, 168 h; C57 mice on high fat diet; 30 mg/Kg orally once a day, 7 days treatment, blood on day 7; read-out: % Change Vs Vehicle Control in LDLc
Method: LDL-C Lowering Activity—in High Fat Diet C57 Mice
The in-vivo LDL-c lowering for test compound was tested in C57 mice which were kept on high fat diet for 4 weeks and the blood was collected by retro-orbital sinus puncture method under light ether anesthesia on day 0 (pretreatment). Animal are grouped based on LDL-c levels, after that 7 days treatment with vehicle or test compound orally at a dose of 30 mpk dose once a day was given. On completion of treatment on day 7 of the treatment the blood was collected for LDL-c and TC levels measurement.

Sequence of PCSK9 (Q8NBP7 153-692): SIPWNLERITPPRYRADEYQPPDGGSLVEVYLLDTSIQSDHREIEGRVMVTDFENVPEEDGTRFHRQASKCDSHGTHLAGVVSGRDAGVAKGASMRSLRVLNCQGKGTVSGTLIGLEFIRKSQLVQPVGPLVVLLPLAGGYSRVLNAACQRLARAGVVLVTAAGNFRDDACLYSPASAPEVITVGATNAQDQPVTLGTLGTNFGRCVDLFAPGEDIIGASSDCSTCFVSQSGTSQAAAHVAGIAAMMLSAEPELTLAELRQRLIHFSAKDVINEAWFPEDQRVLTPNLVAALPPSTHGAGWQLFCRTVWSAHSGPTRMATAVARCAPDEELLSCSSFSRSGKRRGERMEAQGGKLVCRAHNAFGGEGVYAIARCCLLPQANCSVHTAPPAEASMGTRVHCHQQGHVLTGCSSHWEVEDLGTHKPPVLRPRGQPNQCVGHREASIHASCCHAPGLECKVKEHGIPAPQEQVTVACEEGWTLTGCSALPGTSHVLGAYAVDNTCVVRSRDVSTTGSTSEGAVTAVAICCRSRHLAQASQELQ

Structure (SMILES) | % increase in LDL Uptake (PCSK9; 1 μM test compound) [%] | % increase in LDL Uptake (PCSK9; 10 μM test compound) [%] | % increase in LDL Uptake (PCSK9; 30 μM test compound) [%] | change in vivo at 30 mg/kg (High Fat Diet C57 Mice) [%]
O=C(c1ccc(C2(O)COC2)cc1)N1CC2CN(c3ccc(C(F)(F)F)cc3)CC2C1 (centres unmarked) [Example 11, (4-(3-hydroxyoxetan-3-yl)phenyl)(5-(4-(trifluoromethyl)phenyl)hexahydropyrrolo[3,4-c]pyrrol-2 (1H)-yl)methanone] | 6 | 59 | 116 | -48 ± 5
[2H]C([2H])([2H])OC1(c2ccc(C(=O)N3CC4CN(c5ccc(C(F)(F)F)cc5)CC4C3)cc2)COC1 (centres unmarked) [Example 134, (4-(3-(methoxy-d3)oxetan-3-yl)phenyl)(5-(4-(trifluoromethyl)phenyl)hexahydropyrrolo[3,4-c]pyrrol-2(1H)-yl)methanone] | 3 | 28 | 43 | -38 ± 7
COC1(c2ccc(C(=O)N3Cc4cn(-c5ccc(C(F)(F)F)cc5)nc4C3)cc2)COC1 [Example 90, (4-(3-methoxyoxetan-3-yl)phenyl)(2-(4-(trifluoromethyl)phenyl)-2,6-dihydropyrrolo[3,4-c]pyrazol-5(4H)-yl)methanone] | 3 | 39 | 74 | -5.5 ± 4.5
O=C(c1cccc(C2(O)COC2)c1)N1CCC(c2ccc(C(F)(F)F)cc2)CC1 [Example 47, (3-(3-hydroxyoxetan-3-yl)phenyl)(4-(4-(trifluoromethyl)phenyl)piperidin-1-yl)methanone] | 17 | 189 | 383 | -5 ± 7
O=C(c1cccc(C2(O)COC2)c1)N1CCN(c2ccc(C(F)(F)F)cn2)CC1 [Example 220, (3-(3-hydroxyoxetan-3-yl)phenyl)(4-(5-(trifluoromethyl)pyridin-2-yl)piperazin-1-yl)methanone] | 8 | 31 | 56 | -16
[2H]C([2H])([2H])OC1(c2ccc(C(=O)N3CCC(c4ccc(C(F)(F)F)cc4)CC3)cc2)COC1 [Example 76, (4-(3-(methoxy-d3)oxetan-3-yl)phenyl)(4-(4-(trifluoromethyl)phenyl)piperidin-1-yl)methanone] | 10 | 98 | 108 | -28 ± 7
O=C(c1cccc(C2(O)COC2)c1)N1CCC(c2ccc(C(F)F)cc2)CC1 [Example 66, (4-(4-(difluoromethyl)phenyl)piperidin-1-yl)(3-(3-hydroxyoxetan-3-yl)phenyl)methanone] | 0 | 24 | 159 | -24 ± 7.1
O=C(c1ccc(C2(O)COC2)cc1)N1CC2=C(C1)CN(c1ccc(C(F)(F)F)cc1)C2 [Example 95, (4-(3-hydroxyoxetan-3-yl)phenyl)(5-(4-(trifluoromethyl)phenyl)-3,4,5,6-tetrahydropyrrolo[3,4-c]pyrrol-2(1H)-yl)methanone] | 19 | 127 | 226 | -16 ± 9
O=C(c1ccc(C2(O)COC2)cc1)N1CC2CN(c3ccc(C(F)(F)F)nc3)CC2C1 (centres unmarked) [Example 215, (4-(3-hydroxyoxetan-3-yl)phenyl)(5-(6-(trifluoromethyl)pyridin-3-yl)hexahydropyrrolo[3,4-c]pyrrol-2(1H)-yl)methanone] | 0 | 90 | 140 | -29 ± 5

Now from value to molecule, other results behind:

% increase in LDL Uptake (PCSK9; 1 μM test compound) [%] | % increase in LDL Uptake (PCSK9; 10 μM test compound) [%] | % increase in LDL Uptake (PCSK9; 30 μM test compound) [%] | Structure (SMILES) | change in vivo at 30 mg/kg (High Fat Diet C57 Mice) [%]
0 | 106 | 179 | O=C(c1ccc(C2(O)COC2)cc1)N1CCN(c2ccc(C(F)(F)F)cc2)CC1 [Example 6, (4-(3-hydroxyoxetan-3-yl)phenyl)(4-(4-(trifluoromethyl)phenyl)piperazin-1-yl)methanone] | 0.6 ± 9
13 | 86 | 172 | COC1(c2ccc(C(=O)N3CCC(c4ccc(C(F)(F)F)cc4)CC3)cc2)COC1 [Example 2, (4-(3-methoxyoxetan-3-yl)phenyl)(4-(4-(trifluoromethyl)phenyl)piperidin-1-yl)methanone] | -45 ± 5
0 | 77 | 16 | O=C(c1ccc(C2(O)CCOCC2)cc1)N1CCC(c2ccc(C(F)(F)F)cc2)CC1 [Example 142, (4-(4-hydroxytetrahydro-2H-pyran-4-yl)phenyl)(4-(4-(trifluoromethyl)phenyl)piperidin-1-yl)methanone] | -26 ± 10
27 | 86 | 252 | O=C(c1ccc(C2(O)COC2)cc1)N1CCCC(c2ccc(C(F)(F)F)cc2)C1 (centres unmarked) [Example 34, (4-(3-hydroxyoxetan-3-yl)phenyl)(3-(4-(trifluoromethyl)phenyl)piperidin-1-yl)methanone] | -31 ± 8
0 | 73 | 114 | OC1(c2ccc(N3CCC(c4ccc(C(F)(F)F)cc4)CC3)cc2)COC1 [Example 8, 3-(4-(4-(4-(trifluoromethyl)phenyl)piperidin-1-yl)phenyl)oxetan-3-ol] | -30 ± 8
